Results on 27 molecules are retold here after ChEMBL document CHEMBL4387740, “Discovery of ABT-957: 1-Benzyl-5-oxopyrrolidine-2-carboxamides as selective calpain inhibitors with enhanced metabolic stability” (Bioorg Med Chem Lett, 2019).

Broadly, the Ki is the dissociation constant of the complex between target and ligand, obtained from inhibition or displacement.

The target in data set [1] is T1, Calpain-1 catalytic subunit (Homo sapiens, UniProt P07384).
T1 sequence (P07384 whole entry): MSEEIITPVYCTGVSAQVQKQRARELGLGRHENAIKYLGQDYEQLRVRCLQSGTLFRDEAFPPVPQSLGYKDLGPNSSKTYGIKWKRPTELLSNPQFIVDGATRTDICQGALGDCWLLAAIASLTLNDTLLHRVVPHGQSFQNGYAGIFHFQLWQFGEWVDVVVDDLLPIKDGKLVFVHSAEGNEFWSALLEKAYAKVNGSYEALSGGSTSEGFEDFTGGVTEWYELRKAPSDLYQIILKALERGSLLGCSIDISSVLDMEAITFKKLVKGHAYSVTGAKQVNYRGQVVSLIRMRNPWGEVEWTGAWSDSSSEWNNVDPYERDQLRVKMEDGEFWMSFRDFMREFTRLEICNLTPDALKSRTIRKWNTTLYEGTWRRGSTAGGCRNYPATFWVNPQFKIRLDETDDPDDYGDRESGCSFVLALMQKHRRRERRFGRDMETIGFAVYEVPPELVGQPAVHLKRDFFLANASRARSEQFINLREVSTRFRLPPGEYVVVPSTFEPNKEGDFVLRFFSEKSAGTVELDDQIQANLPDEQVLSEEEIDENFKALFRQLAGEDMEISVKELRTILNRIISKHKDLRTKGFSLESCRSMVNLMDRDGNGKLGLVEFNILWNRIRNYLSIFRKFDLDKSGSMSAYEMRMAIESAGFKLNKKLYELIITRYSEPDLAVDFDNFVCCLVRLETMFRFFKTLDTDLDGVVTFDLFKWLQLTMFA
Put plainly: Inhibition of Cal1 (unknown origin).

The species named for data set [2] is Homo sapiens. The experiment in a line: Selectivity ratio, ratio of Ki for CatB (unknown origin) to Ki for Cal1 (unknown origin).
The species entered for data set [3] is Homo sapiens. The experiment in a line: Selectivity ratio, ratio of Ki for CatK (unknown origin) to Ki for Cal1 (unknown origin).
Data set [4] is filed under the species Homo sapiens. Put plainly: Selectivity ratio, ratio of Ki for CatL (unknown origin) to Ki for Cal1 (unknown origin).
Data set [5] can be described thus: Selectivity ratio, ratio of Ki for CatS (unknown origin) to Ki for Cal1 (unknown origin). The note with it: Homo sapiens.
Data set [6] is described as follows: Intrinsic clearance in human liver cytosol. Conditions: read-out: CLH. Type of data set: ADME, subcellular.
A short description of data set [7]: Intrinsic clearance in rat liver microsomes. Conditions: read-out: CLH.
Data set [8] in a line: Intrinsic clearance in human liver microsomes. Type of data set: ADME, Microsome. The note with it: read-out: CLH. In general terms: Microsomes from liver hold many membrane-bound enzymes, among them those of drug oxidation.
Data set [9] can be described thus: Intrinsic clearance in rat liver microsomes. Type of data set: ADME, Microsome. Conditions: read-out: CLH.

In turn, `NC(=O)C(=O)C(Cc1ccccc1)NC(=O)[C@H]1CCC(=O)N1Cc1ccncc1` (mixture of isomers) displayed an inhibition constant Ki in [1] of 180 nM. Also, the Selectivity ratio in the data set listed under Homo sapiens [2] worked out at 16; in the data set listed under Homo sapiens [3], 13; in the data set filed under Homo sapiens [4], 9; in data set [5], 35.

In [1], `NC(=O)C(=O)C(Cc1ccccc1)NC(=O)[C@H]1CCC(=O)N1CC1CCCCC1` (mixture of isomers) returned an inhibition constant Ki of 200 nM. Further, the Selectivity ratio in the data set filed under Homo sapiens [2] is 8; in the data set filed under Homo sapiens [3] it was under 1; in the data set listed under Homo sapiens [4] it was 2; in [5], 5.

In turn, `NC(=O)C(=O)C(Cc1ccccc1)NC(=O)c1cccc(=O)n1Cc1ccccc1` (stereo unspecified) came in with a Ki in data set [1] of 82 nM. In addition, the Selectivity ratio in the data set listed under Homo sapiens [2] worked out at 15; in the data set listed under Homo sapiens [3] it was 2; in the data set listed under Homo sapiens [4], 4; in data set [5], 13.

In data set [1], `NC(=O)C(=O)C(Cc1ccccc1)NC(=O)[C@@H]1CCC(=O)N1Cc1ccccc1` (mixture of isomers) displayed a Ki of 528 nM. Besides, the Selectivity ratio stood at 5 in the data set filed under Homo sapiens [2], 17 in the data set listed under Homo sapiens [3], 6 in the data set listed under Homo sapiens [4] and 2 in data set [5].

As for `Cn1cc(CN2C(=O)CC[C@@H]2C(=O)NC(Cc2ccccc2)C(=O)C(=O)NC2CN2)cn1` (stereo partly specified), the inhibition constant Ki in data set [1] was 530 nM. Moreover, the microsomal CLint in data set [6] came out at 27 µL/min/mg; in data set [7], 39 µL/min/mg.

Regarding `O=C1CC[C@H](C(=O)NC(Cc2ccccc2)C(=O)C(=O)NC2CC2)N1` (stereo partly specified), the inhibition constant Ki in data set [1] was found to be 9700 nM. In addition, the microsomal CLint was under 23 µL/min/mg in data set [6], under 1 µL/min/mg in data set [8] and under 23 µL/min/mg in data set [7].

On to `NC(=O)C(=O)C(Cc1ccccc1)NC(=O)[C@H]1CCC(=O)N1Cc1cccc(C(F)(F)F)c1` (mixture of isomers), for which, in data set [1], the Ki came to 26 nM. In addition, the Selectivity ratio in the data set listed under Homo sapiens [2] was 15; in the data set filed under Homo sapiens [3], 84; in the data set listed under Homo sapiens [4], 11; in data set [5] it was 85.

Molecule `CCCCC(NC(=O)[C@H]1CCC(=O)N1Cc1ccccc1)C(=O)C(N)=O` (mixture of isomers) showed a Ki in data set [1] of 46 nM. The Selectivity ratio in the data set listed under Homo sapiens [2] came out at 4; in the data set listed under Homo sapiens [3] it was 6; in the data set filed under Homo sapiens [4] it was 21; in data set [5] it was 41.

In data set [1], `NC(=O)C(=O)C(Cc1ccccc1)NC(=O)[C@H]1CCC(=O)N1Cc1cccc(OC(F)(F)F)c1` (mixture of isomers) registered an inhibition constant (Ki) of 125 nM. The Selectivity ratio was 7 in the data set filed under Homo sapiens [2], 61 in the data set filed under Homo sapiens [3], 4 in the data set listed under Homo sapiens [4] and 76 in data set [5].

In data set [1], `O=C(NC1CCC1)C(=O)C(Cc1ccccc1)NC(=O)[C@H]1CCC(=O)N1Cc1ccccc1` (stereo partly specified) yielded an inhibition constant Ki of 110 nM. The Selectivity ratio in the data set filed under Homo sapiens [2] turned out to be 66; in the data set listed under Homo sapiens [3] it was 27; in the data set listed under Homo sapiens [4], 20; in data set [5], 130. Also, the microsomal CLint in [6] was 1 µL/min/mg; in data set [8], 37 µL/min/mg; in data set [9], over 100 µL/min/mg.

In [1], `O=C(Nc1ccccc1)C(=O)C(Cc1ccccc1)NC(=O)[C@H]1CCC(=O)N1Cc1ccccc1` (stereo partly specified) had a Ki of 70 nM. In addition, the Selectivity ratio in the data set listed under Homo sapiens [2] is 296; in the data set filed under Homo sapiens [3], 88; in the data set listed under Homo sapiens [4], 37; in data set [5] it was over 400. In addition, the microsomal CLint was 5 µL/min/mg in data set [6], over 70 µL/min/mg in data set [8] and over 100 µL/min/mg in data set [9].

On to `O=C(NC1CC1)C(=O)C(Cc1ccccc1)NC(=O)[C@H]1CCC(=O)N1Cc1ccccc1Cl` (stereo partly specified), for which the inhibition constant (Ki) in data set [1] came out at 73 nM. Also, the Selectivity ratio was 18 in the data set listed under Homo sapiens [2], 93 in the data set listed under Homo sapiens [3], 57 in the data set listed under Homo sapiens [4] and over 130 in [5]. The microsomal CLint in data set [6] was over 70 µL/min/mg; in [8], under 1 µL/min/mg; in data set [7], over 100 µL/min/mg.

Molecule `NC(=O)C(=O)C(Cc1ccccc1)NC(=O)[C@H]1CCC(=O)N1c1ccccc1` (mixture of isomers) returned a Ki in data set [1] of over 1350 nM. Also, the Selectivity ratio in the data set filed under Homo sapiens [2] stood at 28; in the data set filed under Homo sapiens [3], 6; in the data set listed under Homo sapiens [4] it was 7; in data set [5], 11.

For `C[C@H]1C[C@H](C(=O)NC(Cc2ccccc2)C(=O)C(N)=O)N(Cc2ccccc2)C1=O` (mixture of isomers), in data set [1], the Ki turned out to be 50 nM. Moreover, the Selectivity ratio in the data set listed under Homo sapiens [2] turned out to be 23; in the data set listed under Homo sapiens [3] it was 1; in the data set listed under Homo sapiens [4], 13; in data set [5], 3.

For `O=C(NC1CC1)C(=O)C(Cc1ccccc1)NC(=O)[C@H]1CCC(=O)N1Cc1ccccc1C(F)(F)F` (stereo partly specified), in data set [1], the affinity, expressed as Ki, was 90 nM. The Selectivity ratio is 33 in the data set listed under Homo sapiens [2], 109 in the data set filed under Homo sapiens [3], 162 in the data set filed under Homo sapiens [4] and over 100 in [5]. The microsomal CLint in [6] is over 70 µL/min/mg; in data set [8], over 1 µL/min/mg; in data set [7], over 100 µL/min/mg.

For `COc1cccc(C(F)(F)F)c1CN1C(=O)CC[C@@H]1C(=O)NC(Cc1ccccc1)C(=O)C(N)=O` (mixture of isomers), in data set [1], the affinity corresponds to a Ki of 36 nM. Moreover, the Selectivity ratio turned out to be 51 in the data set filed under Homo sapiens [2], 120 in the data set filed under Homo sapiens [3], 387 in the data set filed under Homo sapiens [4] and 395 in data set [5].

In the case of `NC(=O)C(=O)C(Cc1ccccc1)NC(=O)[C@H]1CCCC(=O)N1Cc1ccccc1` (mixture of isomers), the Ki in data set [1] stood at 64 nM. Moreover, the Selectivity ratio in the data set listed under Homo sapiens [2] came to 14; in the data set listed under Homo sapiens [3], 4; in the data set filed under Homo sapiens [4], 21; in data set [5] it was 56.

In turn, `CONC(=O)C(=O)C(Cc1ccccc1)NC(=O)[C@H]1CCC(=O)N1Cc1ccccc1` (stereo partly specified) had an inhibitory constant (Ki) in data set [1] of 4360 nM.

In turn, `CC(C)(C)CN1C(=O)CC[C@@H]1C(=O)NC(Cc1ccccc1)C(=O)C(N)=O` (mixture of isomers) yielded a Ki in data set [1] of 1350 nM. The Selectivity ratio in the data set listed under Homo sapiens [2] was determined as 23; in the data set filed under Homo sapiens [3] it was 7; in the data set listed under Homo sapiens [4], 7; in data set [5], 7.

For `NC(=O)C(=O)C(Cc1ccccc1)NC(=O)[C@H]1CCC(=O)N1Cc1ccccc1C(F)(F)F` (mixture of isomers), the Ki in data set [1] came out at 59 nM. For the same molecule, the Selectivity ratio in the data set filed under Homo sapiens [2] amounted to 17; in the data set filed under Homo sapiens [3], 102; in the data set listed under Homo sapiens [4], 65; in data set [5], 524.

On to `O=C(NC1CC1)C(=O)C(Cc1ccccc1)NC(=O)[C@H]1CCC(=O)N1Cc1ccccc1OC(F)(F)F` (stereo partly specified), for which the affinity in data set [1], expressed as Ki, was 50 nM. The Selectivity ratio is 22 in the data set listed under Homo sapiens [2], over 200 in the data set filed under Homo sapiens [3], 17 in the data set listed under Homo sapiens [4] and over 200 in data set [5]. The microsomal CLint was over 70 µL/min/mg in [6], under 1 µL/min/mg in data set [8] and over 100 µL/min/mg in data set [7].

In [1], `O=C(NC1CC1)C(=O)C(Cc1ccccc1)NC(=O)[C@H]1CCC(=O)N1C1Cc2ccccc2C1` (stereo partly specified) returned a Ki of 545 nM. Besides, the microsomal CLint in data set [6] came to 42 µL/min/mg; in data set [8] it was 2 µL/min/mg; in data set [7], 58 µL/min/mg.

As to `NC(=O)C(=O)C(Cc1ccccc1)NC(=O)c1cccnc1-n1ccc(-c2ccc(F)cc2)n1` (stereo unspecified), the Selectivity ratio in the data set listed under Homo sapiens [2] is 10; in the data set filed under Homo sapiens [3], 18; in the data set listed under Homo sapiens [4], 127; in data set [5] it was over 300.

As to `Cc1ccc(S(=O)(=O)N2CCC[C@@H]2C(=O)NC(Cc2ccccc2)C(=O)C(N)=O)cc1` (mixture of isomers), in [1], the Ki turned out to be 129 nM. The Selectivity ratio in the data set listed under Homo sapiens [2] turned out to be 72; in the data set listed under Homo sapiens [3], 14; in the data set listed under Homo sapiens [4] it was 4; in data set [5], 14.

Turning to `NC(=O)C(=O)C(Cc1ccccc1)NC(=O)C1CCS(=O)(=O)N1Cc1ccccc1` (mixture of isomers), affinity in data set [1] was put at a Ki of 268 nM. Moreover, the Selectivity ratio in the data set listed under Homo sapiens [2] came to 56; in the data set filed under Homo sapiens [3] it was 2; in the data set listed under Homo sapiens [4] it was 12; in [5], 7.

Turning to `CN1C[C@H](C(=O)NC(Cc2ccccc2)C(=O)C(N)=O)N(Cc2ccccc2)C1=O` (mixture of isomers), the Ki in [1] was determined as 101 nM. The Selectivity ratio in the data set listed under Homo sapiens [2] worked out at 72; in the data set listed under Homo sapiens [3] it was 4; in the data set filed under Homo sapiens [4] it was 3; in [5], 2.

`NC(=O)C(=O)C(Cc1ccccc1)NC(=O)[C@H]1CCC(=O)N1Cc1ccccc1OC(F)(F)F` (mixture of isomers): the affinity in [1] corresponds to a Ki of 57 nM. Further, the Selectivity ratio in the data set listed under Homo sapiens [2] came out at 5; in the data set filed under Homo sapiens [3], 33; in the data set listed under Homo sapiens [4] it was 41; in data set [5] it was 127.
